Test results as given in patent US20240139188A1, “Arylamide Compounds For Treatment And Prevention Of Fungal Infections” (priority 2022, published 2024).
≈ marks a conversion by molar mass, not a printed value. Where “and” joins values, the source holds several entries; their conditions need not be identical. Equal entries are not always repeated. Where two headings read alike, the source gives them in different places.

Key:
[1] = system: C. albicans; assay: MIC for yeasts, CLSI M27-A3; assay type: cell-based, Candida albicans
[2] = system: CrzA:GFP; assay: CrzA:GFP translocation to the nucleus; conditions: CAS 0.07 μg/ml, 30 minutes
Experimental: Conidia were germinated in YG medium and grown for 13 hours and then exposed or not to BRI, CAS, and BRI+CAS for 30 minutes.

[3] = system: C. neoformans; assay: MIC for yeasts, CLSI M27-A3; assay type: cell-based, Cryptococcus neoformans; conditions: Cryptococcus neoformans H99; read-out: MIC CAS
[4] = system: chitin synthase genes; assay: Chitin synthase mRNA accumulation (RT-qPCR); conditions: wild-type strain, 1 hour exposure; not in the mutant strains
Experimental: RNA-sequencing. cDNA synthesis and RTqPCR: All experiments were carried out in biological triplicates and conidia (10^7) were inoculated in liquid MM and A. fumigatus strains were grown for 16 hours at 37 ° C. and treated or not with different concentrations of BRI, CAS, or BRI+CAS for 1 hour. For total RNA isolation, mycelia were ground in liquid nitrogen and total RNA was extracted using TRIzol (Invitrogen), treated with RQ1 RNase-free DNase I (Promega), and purified using the RNAeasy kit (Qiagen) according to the manufacturer's instructions. RNA was quantified using a NanoDrop and Qubit fluorometer, and analyzed using an Agilent 2100 Bioanalyzer system to assess the integrity of the RNA.
For RT-qPCR, the RNA was reverse transcribed to cDNA using the ImProm-II reverse transcription system (Promega) according to manufacturer's instructions, and the synthesized cDNA was used for real-time analysis using the SYBR green PCR master mix kit (Applied Biosystems) in the ABI 7500 Fast real-time PCR system (Applied Biosystems, Foster City, CA, USA).

[5] = system: A. fumigatus; assay: Fungal burden, chemotherapeutic murine model of IPA; assay type: in vivo, BALB/c mice; conditions: CAS 1 mg/kg, 3 days post-infection, vs non-treated mice
Experimental: Fungal burden: Inbred female mice (BALB/c strain; body weight, 20-22 g) were housed in vented cages containing five animals. Mice were immunosuppressed with cyclophosphamide (150 mg per kg of body weight), which was administered intraperitoneally on days −4, −1 and 2 prior to and post infection (infection day is “day 0”). Hydrocortisonacetate (200 mg/kg body weight) was injected subcutaneously on day −3. Mice (5 mice per group) were anesthetized by halothane inhalation and infected by intranasal instillation of 20 μL of 1.0×10^6 conidia of A. fumigatus Δku80 pyrG^+ (wild-type) (the viability of the administered inoculum was determined by incubating a serial dilution of the conidia on MM medium, at 37° C.). As a negative control, a group of 5 mice received PBS only. […]
DNA quantity and quality were assessed using a NanoDrop 2000 spectrophotometer (Thermo Scientific). Quantitative real-time PCRs were performed using 400 ng of total DNA from each sample, and primers to amplify the 18S rRNA region of A. fumigatus and an intronic region of mouse GAPDH (glyceraldehyde-3-phosphate dehydrogenase). Six-point standard curves were calculated using serial dilutions of gDNA from A. fumigatus strain and the uninfected mouse lung. Fungal and mouse DNA quantities were obtained from the threshold cycle (Ct) values from an appropriate standard curve.

[6] = system: A. fumigatus clinical isolates; assay: Growth inhibition of clinical isolates by CAS, VOR, BRI and combinations
[7] = system: A. fumigatus; assay: MIC/MEC, CLSI M38-A2; assay type: cell-based, Aspergillus fumigatus
[8] = system: A. fumigatus null mutants; assay: Phosphatase and kinase null mutant screening; assay type: cell-based, Aspergillus fumigatus; further: key: +: sensitivity similar to wild-type; −: more sensitive than the wild-type
Experimental: Phosphatase and kinase null mutant screening: An A. fumigatus phosphatase deletion library encompassing 25 null mutants for phosphatase catalytic subunits (Winkelströter et al., G3 (Bethesda), 2015, 5, 1525-39) was screened for sensitivity to the combination of CAS+BRI. […] In each well a total of 200 μL of liquid MM plus conidia from the different mutants (1×10^4 conidia/mL) was incubated in the presence of BRI (20 μM).

[9] = system: C. auris; assay: MIC for yeasts, CLSI M27-A3; assay type: cell-based, Candida auris
[10] = system: A. fumigatus cell membrane potential; assay: Membrane potential determination, DiBAC4(3); assay type: cell-based, Aspergillus fumigatus; conditions: CAS 0.125 μg/ml, 30 minutes
Experimental: Membrane potential determination: […] Biotechnol., 2021, 14, 262-276) with modifications. […] After, the germlings were washed with sterile PBS (140 mM NaCl, 2 mM KCl, 10 mM NaHPO4, 1.8 mM KH2PO4, pH 7.4). The fluorescence was analyzed with excitation wavelength of 450-490 nm, and emission wavelength of 525-550 nm on the Observer Z1 fluorescence microscope (Carl Zeiss) using the 100× with Differential interference contrast (DIC) images. Fluorescent images were captured with an AxioCam camera (Carl Zeiss, Inc.) and processed using the Axio Vision software (version 4.8).

[11] = system: A. fumigatus biofilms; assay: Biofilm assay (XTT); conditions: Aspergillus fumigatus, read-out: inhibition of biofilm formation
Experimental: Biofilm assay: To test the susceptibility of pre-formed A. fumigatus biofilms to
VOR, CAS and to the combination of CAS+BRI and VOR+BRI, a suspension containing 10^6 conidia per mL of the wild-type strain (Δku80 pyrG^+) was prepared in liquid MM and 100 μL of it was inoculated in each well of a 96-well plate. After 24 hours of incubation at 37° C., 50 μL of fresh MM containing CAS, VOR or the combination of VOR and CAS with BRI was added to the biofilm to reach the final concentration as indicated and incubated for a further 12 hours at 37° C. Wells containing untreated conidia were used as a positive control. After, the metabolic activity of the cells was evaluated by adding 50 μL of an aqueous XTT solution (1 mg/mL of XTT and 125 μM of menadione) to each well. The plate was incubated for additional 1 hour at 37° C., centrifuged (2000 rpm, 5 minutes) and 100 μL of the supernatant was transferred to a flat-bottomed 96-well plate. The absorbance was measured at 450 nm on a plate reader (Synergy HTX Multi-Mode Reader- BioTek Instruments). The XTT assay's were performed in six replicates.

CC[C@H](C)C[C@H](C)CCCCCCCCC(=O)N[C@H]1C[C@@H](O)[C@@H](NCCN)NC(=O)[C@@H]2[C@@H](O)CCN2C(=O)[C@H]([C@H](O)CCN)NC(=O)[C@H]([C@H](O)[C@@H](O)c2ccc(O)cc2)NC(=O)[C@@H]2C[C@@H](O)CN2C(=O)[C@H]([C@@H](C)O)NC1=O [CAS, caspofungin]
MIC ([1]; Candida albicans SC5314, read-out: MIC CAS): 0.25 µg/mL (≈ 0.229 µM) | MIC ([1]; Candida albicans, read-out: MIC CAS, Candida albicans DPL1006 CAS^R (FKS1 F641L)): 2 µg/mL (≈ 1.83 µM) | MIC ([1]; Candida albicans, read-out: MIC CAS, Candida albicans DPL1007 CAS^R (FKS1 F641S)): 4 µg/mL (≈ 3.66 µM) | MIC ([1]; Candida albicans, read-out: MIC CAS, Candida albicans DPL1009 CAS^R (FKS1 S645Y)): 4 µg/mL (≈ 3.66 µM) | MIC ([1]; Candida albicans, read-out: MIC CAS, Candida albicans DPL1010 CAS^R (FKS1 S645F)): 2 µg/mL (≈ 1.83 µM) | MIC ([1]; Candida albicans, read-out: MIC CAS, Candida albicans DPL1011 CAS^R (FKS1 S645F + R1361R/H)): 4 µg/mL | germlings with CrzA:GFP in the nuclei [2]: 28.3% | MIC [3]: 32 µg/mL (≈ 29.3 µM) | chitin synthase gene expression [4]: induce some of these genes | reduction of fungal burden in the lungs [5]: approximately 50% | growth, CAS alone ([6]; CM7555 CAS^R, CAS 0.25 μg/mL): + | growth, CAS alone ([6]; CM7555 CAS^R, CAS 2 μg/mL): + | growth, CAS alone ([6]; CM7555 CAS^R, CAS 4 μg/mL): + | growth, CAS alone ([6]; DPL1033 CAS^R, CAS 0.25 μg/mL): + | growth, CAS alone ([6]; DPL1033 CAS^R, CAS 2 μg/mL): + | growth, CAS alone ([6]; DPL1033 CAS^R, CAS 4 μg/mL): + | growth, CAS alone ([6]; MD24053 CAS^R, CAS 0.25 μg/mL): + | growth, CAS alone ([6]; MD24053 CAS^R, CAS 2 μg/mL): + | growth, CAS alone ([6]; MD24053 CAS^R, CAS 4 μg/mL): + | growth, CAS alone ([6]; WT, CAS 0.25 μg/mL): + | growth, CAS alone ([6]; WT, CAS 2 μg/mL): + | growth, CAS alone ([6]; WT, CAS 4 μg/mL): + | MEC of CAS ([7]; A. fumigatus): 0.2 µg/mL and 0.25 µg/mL | MEC CAS ([7]; A. fumigatus CM7555 CAS^R): 16 µg/mL | MEC CAS ([7]; A. fumigatus DPL1033 CAS^R): 16 µg/mL | MEC CAS ([7]; A. fumigatus MD24053 CAS^R): 16 µg/mL | MEC CAS ([7]; A. fumigatus WT): 0.25 µg/mL | MEC CAS ([7]; A. fumigatus clinical isolates susceptible to CAS): 0.25 µg/mL | MEC CAS ([7]; CAS-resistant clinical strains DPL1033, MD24053, CM7555): 16 µg/mL | sensitivity, CAS (0.25 μg/mL) ([8]; Afs35 (wild-type; A1159)): + | sensitivity, CAS (0.25 μg/mL) ([8]; CEA17 (wild-type; A1160)): + | sensitivity, CAS (0.25 μg/mL) ([8]; ΔcalA (Afu5g09360)): + | sensitivity, CAS (0.25 μg/mL) ([8]; ΔcdcA (Afu3g12250)): + | sensitivity, CAS (0.25 μg/mL) ([8]; ΔdspA (Afu1g13040)): + | sensitivity, CAS (0.25 μg/mL) ([8]; ΔdspB (Afu1g03540)): + | sensitivity, CAS (0.25 μg/mL) ([8]; ΔdspD (Afu2g02760)): + | sensitivity, CAS (0.25 μg/mL) ([8]; ΔltpA (Afu2g01880)): + | sensitivity, CAS (0.25 μg/mL) ([8]; ΔmpkA): − | sensitivity, CAS (0.25 μg/mL) ([8]; ΔmpkB): + | sensitivity, CAS (0.25 μg/mL) ([8]; ΔmpkC): + | sensitivity, CAS (0.25 μg/mL) ([8]; ΔnemA (Afu1g09460)): + | sensitivity, CAS (0.25 μg/mL) ([8]; ΔpphA (Afu5g12010)): + | sensitivity, CAS (0.25 μg/mL) ([8]; ΔppmA (Afu8g04580)): + | sensitivity, CAS (0.25 μg/mL) ([8]; ΔppsA (Afu5g11690)): + | sensitivity, CAS (0.25 μg/mL) ([8]; ΔpptA (Afu5g06700)): + | sensitivity, CAS (0.25 μg/mL) ([8]; ΔppzA (Afu2g03950)): + | sensitivity, CAS (0.25 μg/mL) ([8]; ΔpsrA (Afu1g04790)): + | sensitivity, CAS (0.25 μg/mL) ([8]; ΔptcA (Afu1g15800)): + | sensitivity, CAS (0.25 μg/mL) ([8]; ΔptcB (Afu1g09280)): + | sensitivity, CAS (0.25 μg/mL) ([8]; ΔptcD (Afu5g13740)): + | sensitivity, CAS (0.25 μg/mL) ([8]; ΔptcE (Afu2g03890)): + | sensitivity, CAS (0.25 μg/mL) ([8]; ΔptcF (Afu1g06860)): + | sensitivity, CAS (0.25 μg/mL) ([8]; ΔptcG (Afu5g13340)): + | sensitivity, CAS (0.25 μg/mL) ([8]; ΔptcH (Afu4g00720)): + | sensitivity, CAS (0.25 μg/mL) ([8]; ΔptpB (Afu3g10970)): + | sensitivity, CAS (0.25 μg/mL) ([8]; ΔptyA (Afu6g06650)): + | sensitivity, CAS (0.25 μg/mL) ([8]; ΔpypA (Afu4g04710)): + | sensitivity, CAS (0.25 μg/mL) ([8]; ΔsakA): + | sensitivity, CAS (0.25 μg/mL) ([8]; ΔsakA, ΔmpkC): + | sensitivity, CAS (0.25 μg/mL) ([8]; ΔsitA (Afu6g11470)): + | sensitivity, CAS (0.25 μg/mL) ([8]; ΔyphA (Afu4g07000)): + | MIC CAS ([9]; Candida auris 468/2015): 1.0 µg/mL (≈ 0.915 µM) | MIC CAS ([9]; Candida auris 469/2015): 1.0 µg/mL (≈ 0.915 µM) | MIC CAS ([9]; Candida auris 470/2015): 1.0 µg/mL (≈ 0.915 µM) | MIC CAS ([9]; Candida auris 471/2015): 1.0 µg/mL (≈ 0.915 µM) | MIC ([9]; Candidozyma auris, Candida auris 467/2015, read-out: MIC CAS): 1 µg/mL (≈ 0.915 µM) | fluorescent germlings (membrane depolarization) [10]: ~25% | inhibition at 0.25 µg/mL [11]: ~10% | inhibition at 2 µg/mL [11]: ~10%
